Data published in patent US8716285B2, “N-hydroxy-benzamids for the treatment of cancer” (Hoffmann-La Roche Inc., priority 2010, dated 2014).

What was measured:
[1] = tested on: p21 promoter-luciferase construct; test: p21 reporter gene induction in HeLa cells transfected with p21 promoter-luciferase construct; type: cell-based; details: for p21 RP3: relative gene level of p21 induced compared to MS275 at 3 μM; for p21 RP10: relative level of p21 induced compared to MS275 at 10 μM; for p21 RP30: relative level of p21 induced compared to MS275 at 30 μM
Description: As a surrogate for in-cell HDAC1/2/3 inhibition, p21 induction was used as a counterscreen to evaluate the selectivity of the compounds in the present invention toward HDAC6 or HDAC8.
The novel compounds of the present invention were tested for their ability to induce p21 gene expression using a reporter gene assay involving HeLa cells transfected with a p21 promoter-luciferase construct. The p21 promoter contained the Sp1/Sp3 binding site for HDAC but not the upstream p53 binding site. Briefly, the day before transfection, HeLa cells were seeded at 11,000 cells/well in a 96-well culture plate and incubated at 37° C. in 5% CO2 overnight. A transfection media was prepared prior to transfection according to the following procedure: (1) 5 μl serum-free DMEM, 0.15 μl Fugene 6 reagent, 40 ng p21-luc, 10 ng GFP were mixed gently and incubated at rt for 30 minutes; (2), then 98 μl DMEM (with 10% FBS, 1% penicillin and streptomycin) was added to the DNA: Fugene 6 reagent complex and mixed gently. For transfection, the medium was removed and replaced with 100 μl/well transfection media which was prepared according to the procedure above. After incubating the cells for 24 hours at 37° C. in 5% CO2, fresh media and test compounds were added to the wells and the cells further incubated for 15 hours at 37° C. in 5% CO2. Cells were lysed by adding 80 μl/well of a cell culture lysis reagent (Promega). […] 100 μl luciferase assay reagent (Promega) was then added to every 20 μl cell lysate for luminometer detection. […] Induction activity for specific representative compounds can be found in Table 3.

recombinant human HDAC8 = recombinant human HDAC8 (Homo sapiens (Human), UniProt Q9BY41); test: HDAC8 inhibition: recombinant HDAC8 fluorometric assay; type: biochemical; details: recombinant human HDAC8, substrate Ac-Arg-His-Lys-Lys(ε-acetyl)-AMC
Description: A competitive inhibitory assay of HDAC8 was carried out by using recombinant HDAC8 and a commercial substrate Ac-Arg-His-Lys-Lys(ε-acetyl)-AMC.
Compounds were tested for their ability to inhibit histone deacetylase 8 using an in vitro deacetylation assay. The enzyme source for this assay was recombinant human HDAC8 protein expressed and purified from insect cells. […] The substrate consisted of a commercial product Ac-Arg-His-Lys-Lys(ε-acetyl)-AMC (substrate is available from Cayman Chemical). […] In a detailed procedure, 8 μl of HDAC8 enzyme solution (0.125 μg/μl) was transferred to assay plates (CORNING 3676). 1 μl of half-log diluted compounds were added into wells and incubated for 15 min at rt. After that, 8 μl of substrate solution was transferred to the wells and incubated for 30 min at rt. After deacetylation of the substrate by incubation with HDAC8 enzyme, subsequent exposure to a developing reagent produced a fluorophore that was directly proportional to the level of deacetylation. So 4 μl of developer regent (Cayman 10006394) was added into the wells in the assay plates and incubated for 15 min. The fluorescence signal was measured by a FlexStation3 plate reader (excitation wave length 340-360 nm; emission wave length 440-465 nm). The IC50 was calculated after normalization and curve fitting using XLfit4.0 software. Inhibition %=[Mean(top)−signal(sample)]*100/[Mean(top)−Mean(bottom)].

HDAC6 = HDAC6 (Homo sapiens (Human), UniProt Q9UBN7); test: Tubulin acetylation cytoblot assay (A549 cells); type: cell-based; details: 17-18 h, concentration for 50% induction of acetylated tubulin, read-out: Tub-ac EC50
Description: Tubulin acetylation is a PD marker for HDAC6 inhibition. The extent of tubulin acetylation represents the inhibitory effect on HDAC6.
Novel compounds were tested for their ability to inhibit HDAC6 using a cell-based deacetylation assay. Tubulin acetylation was detected by the anti-acetylated tubulin antibody (Sigma) and horse radish peroxidase (HRP) conjugated secondary antibody (KangChen Bio. Tech.). […] 20 μl of diluted compound solution was transferred to the cell culture plate and incubated for 17-18 h. After medium removal and fixation by formaldehyde (3.7% paraformaldehyde in TBS), the cells in the plates were treated with 180 μl of −20° C. MeOH and incubated for 5 min at rt. The cell lysis was incubated with 75 μl of primary anti-acetylated tubulin antibody and secondary HRP conjugated antibody solution (1:750 anti-acetylated tubulin, 1:750 HRP conjugated anti-mouse IgG in antibody dilution buffer not containing sodium azide) for 4 h at 4° C. By adding the HRP substrate, enhanced chemiluminescence (ECL) reagent (GE Healthcare) generated luminescence corresponding to the level of tubulin acetylation. So that 75 μl of ECL was added into the wells and the luminescence from each well was immediately quantified by the plate reader. Based on the luminescence reading, the IC50s against HDAC6 of the tested compounds were calculated by plotting the curve with XLfit4.0 software. Inhibition %=[signal(sample)−Mean(bottom)]*100/[Mean(top)−Mean(bottom)]

HDAC6, sequence (Q9UBN7 whole entry): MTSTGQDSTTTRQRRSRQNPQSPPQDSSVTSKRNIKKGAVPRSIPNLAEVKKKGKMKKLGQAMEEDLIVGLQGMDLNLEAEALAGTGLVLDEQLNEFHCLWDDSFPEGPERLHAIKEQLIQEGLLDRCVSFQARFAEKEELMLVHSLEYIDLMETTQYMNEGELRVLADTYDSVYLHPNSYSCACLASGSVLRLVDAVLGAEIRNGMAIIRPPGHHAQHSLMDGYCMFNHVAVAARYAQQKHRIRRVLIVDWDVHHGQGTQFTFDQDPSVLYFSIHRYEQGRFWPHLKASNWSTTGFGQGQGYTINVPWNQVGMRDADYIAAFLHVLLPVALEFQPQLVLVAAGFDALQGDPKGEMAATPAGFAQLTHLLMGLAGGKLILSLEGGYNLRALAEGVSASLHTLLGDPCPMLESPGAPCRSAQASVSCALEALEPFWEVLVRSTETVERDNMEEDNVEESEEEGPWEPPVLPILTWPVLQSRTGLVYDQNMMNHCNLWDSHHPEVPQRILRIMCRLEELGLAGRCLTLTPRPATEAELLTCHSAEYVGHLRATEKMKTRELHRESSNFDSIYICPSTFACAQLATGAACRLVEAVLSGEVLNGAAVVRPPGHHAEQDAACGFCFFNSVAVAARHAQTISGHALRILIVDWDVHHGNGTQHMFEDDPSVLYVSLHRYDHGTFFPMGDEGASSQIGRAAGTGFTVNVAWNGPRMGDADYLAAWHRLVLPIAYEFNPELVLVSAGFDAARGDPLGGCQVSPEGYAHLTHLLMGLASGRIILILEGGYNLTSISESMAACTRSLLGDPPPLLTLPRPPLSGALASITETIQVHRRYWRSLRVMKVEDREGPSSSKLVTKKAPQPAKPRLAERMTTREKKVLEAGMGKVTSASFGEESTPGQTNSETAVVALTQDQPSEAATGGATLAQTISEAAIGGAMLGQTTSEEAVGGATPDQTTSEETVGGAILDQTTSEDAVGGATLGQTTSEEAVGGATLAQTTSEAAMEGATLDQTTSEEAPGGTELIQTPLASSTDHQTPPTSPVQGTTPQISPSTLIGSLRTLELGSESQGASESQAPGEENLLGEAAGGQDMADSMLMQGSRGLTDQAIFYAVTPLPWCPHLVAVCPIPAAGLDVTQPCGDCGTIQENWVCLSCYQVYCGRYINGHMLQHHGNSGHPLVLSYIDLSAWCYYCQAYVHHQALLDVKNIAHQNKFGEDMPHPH
recombinant human HDAC8, sequence (Q9BY41 whole entry): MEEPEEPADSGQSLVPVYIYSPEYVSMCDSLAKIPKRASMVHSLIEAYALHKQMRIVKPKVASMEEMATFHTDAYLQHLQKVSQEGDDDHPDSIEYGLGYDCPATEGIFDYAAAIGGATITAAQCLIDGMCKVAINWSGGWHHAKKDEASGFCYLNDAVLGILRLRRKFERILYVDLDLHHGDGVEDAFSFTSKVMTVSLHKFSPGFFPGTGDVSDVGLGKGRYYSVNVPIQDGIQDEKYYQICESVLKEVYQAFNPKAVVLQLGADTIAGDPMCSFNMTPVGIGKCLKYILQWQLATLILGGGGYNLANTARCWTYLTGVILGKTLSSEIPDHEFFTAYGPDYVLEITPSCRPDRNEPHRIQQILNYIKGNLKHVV

| SMILES | p21 RP3 [1] | p21 RP10 [1] | p21 RP30 [1] | IC50 (recombinant human HDAC8) | EC50 (HDAC6) |
| --- | --- | --- | --- | --- | --- |
| Cc1ccc(-c2ccnc(NC3CCc4ccc(C(=O)NO)cc4C3)n2)c(F)c1 (centres unmarked) [Example 17, 7-[4-(2-Fluoro-4-methyl-phenyl)-pyrimidin-2-ylamino]-5,6,7,8-tetrahydro-naphthalene-2-carboxylic acid hydroxyamide] | −0.56 | −0.47 | −0.45 | 1.1 µM | 2.3 µM |
| COc1ccc(-c2ccnc(NC3CCc4ccc(C(=O)NO)cc4C3)n2)c(OC)c1 (centres unmarked) [Example 18, 7-[4-(2,4-Dimethoxy-phenyl)-pyrimidin-2-ylamino]-5,6,7,8-tetrahydro-naphthalene-2-carboxylic acid hydroxyamide] | 0.43 | 0.06 | −0.06 | 1.23 µM | 1.37 µM |
| O=C(NO)c1ccc2c(c1)CC(Nc1nccc(-c3ccc(C(F)(F)F)cc3)n1)CC2 (centres unmarked) [Example 19, 7-[4-(4-Trifluoromethyl-phenyl)-pyrimidin-2-ylamino]-5,6,7,8-tetrahydro-naphthalene-2-carboxylic acid hydroxyamid] | −0.18 | −0.26 | −0.29 | 1.69 µM | 5 µM |
| O=C(NO)c1ccc2c(c1)CC(Nc1nccc(-c3ccc(Cl)cc3Cl)n1)CC2 (centres unmarked) [Example 20, 7-[4-(2,4-Dichloro-phenyl)-pyrimidin-2-ylamino]-5,6,7,8-tetrahydro-naphthalene-2-carboxylic acid hydroxyamide] | −0.71 | −0.44 | −0.40 | 1.52 µM | 6.2 µM |
| Cc1cc(Cl)ccc1-c1ccnc(NC2CCc3ccc(C(=O)NO)cc3C2)n1 (centres unmarked) [Example 21, 7-[4-(4-Chloro-2-methyl-phenyl)-pyrimidin-2-ylamino]-5,6,7,8-tetrahydro-naphthalene-2-carboxylic acid hydroxyamide] | −0.24 | −0.28 | −0.32 | 2.15 µM | 9.53 µM |
| O=C(NO)c1ccc2c(c1)CC(Nc1nccc(-c3ccc(F)c(Cl)c3)n1)CC2 (centres unmarked) [Example 22, 7-[4-(3-Chloro-4-fluoro-phenyl)-pyrimidin-2-ylamino]-5,6,7,8-tetrahydro-naphthalene-2-carboxylic acid hydroxyamide] | −0.87 | −0.59 | −0.52 | 2.24 µM | 6 µM |
| Cc1ccc(-c2ccnc(NC3CCc4ccc(C(=O)NO)cc4C3)n2)cn1 (centres unmarked) [Example 25, 7-[4-(6-Methyl-pyridin-3-yl)-pyrimidin-2-ylamino]-5,6,7,8-tetrahydro-naphthalene-2-carboxylic acid hydroxyamide] | 0.30 | 0.13 | 0.08 | 0.48 µM | 6.2 µM |
| Cc1cncc(-c2ccnc(NC3CCc4ccc(C(=O)NO)cc4C3)n2)c1 (centres unmarked) [Example 26, 7-[4-(5-Methyl-pyridin-3-yl)-pyrimidin-2-ylamino]-5,6,7,8-tetrahydro-naphthalene-2-carboxylic acid hydroxyamide] | 0.68 | 0.20 | −0.05 | 0.52 µM | 1.52 µM |
| COc1cncc(-c2ccnc(NC3CCc4ccc(C(=O)NO)cc4C3)n2)c1 (centres unmarked) [Example 27, 7-[4-(5-Methoxy-pyridin-3-yl)-pyrimidin-2-ylamino]-5,6,7,8-tetrahydro-naphthalene-2-carboxylic acid hydroxyamide] | 0.35 | 0.05 | −0.09 | 0.52 µM | 1.9 µM |
| COc1ccc(-c2ccnc(NC3CCc4ccc(C(=O)NO)cc4C3)n2)cn1 (centres unmarked) [Example 28, 7-[4-(6-Methoxy-pyridin-3-yl)-pyrimidin-2-ylamino]-5,6,7,8-tetrahydro-naphthalene-2-carboxylic acid hydroxyamide] | −0.20 | −0.19 | −0.24 | 1 µM | 5.47 µM |
| O=C(NO)c1ccc2c(c1)CC(Nc1nccc(-c3ccc(Cl)nc3)n1)CC2 (centres unmarked) [Example 29, 7-[4-(6-Chloro-pyridin-3-yl)-pyrimidin-2-ylamino]-5,6,7,8-tetrahydro-naphthalene-2-carboxylic acid hydroxyamide] | 0.39 | 0.07 | −0.02 | 0.9 µM | 1.43 µM |
| O=C(NO)c1ccc2c(c1)CC(Nc1nccc(-c3cccnc3Cl)n1)CC2 (centres unmarked) [Example 30, 7-[4-(2-Chloro-pyridin-3-yl)-pyrimidin-2-ylamino]-5,6,7,8-tetrahydro-naphthalene-2-carboxylic acid hydroxyamide] | 0.40 | 0.10 | −0.03 | 0.51 µM | 0.6 µM |
| O=C(NO)c1ccc2c(c1)CC(Nc1nccc(-c3ccc(N4CCOCC4)nc3)n1)CC2 (centres unmarked) [Example 31, 7-[4-(6-Morpholin-4-yl-pyridin-3-yl)-pyrimidin-2-ylamino]-5,6,7,8-tetrahydro-naphthalene-2-carboxylic acid hydroxyamide] | 0.18 | 0.19 | 0.12 | 0.32 µM | 6.7 µM |
| Cc1cc(Oc2ccccc2)nc(NC2CCc3ccc(C(=O)NO)cc3C2)n1 (centres unmarked) [Example 32, 7-(4-Methyl-6-phenoxy-pyrimidin-2-ylamino)-5,6,7,8-tetrahydro-naphthalene-2-carboxylic acid hydroxyamide] | 0.26 | 0.15 | −0.04 | 1.5 µM | 5.2 µM |
| O=C(NO)c1ccc2c(c1)CC(Nc1nccc(-c3cnc4ccccc4c3)n1)CC2 (centres unmarked) [Example 34, 7-(4-Quinolin-3-yl-pyrimidin-2-ylamino)-5,6,7,8-tetrahydro-naphthalene-2-carboxylic acid hydroxyamide] | 0.42 | 0.31 | −0.02 | 0.48 µM | 7.86 µM |
| O=C(NO)c1ccc2c(c1)CC(Nc1ncc3cc(F)ccc3n1)CC2 (centres unmarked) [Example 35, 7-(6-Fluoro-quinazolin-2-ylamino)-5,6,7,8-tetrahydro-naphthalene-2-carboxylic acid hydroxyamide] | −0.86 | −0.30 |  | 1.78 µM | 0.93 µM |
| O=C(NC1CCc2ccc(C(=O)NO)cc2C1)OCc1cccnc1 (centres unmarked) [Example 38] | 0.15 | 0.05 | 0.02 | 1.27 µM | 0.93 µM |
| CCCCS(=O)(=O)NC1CCc2ccc(C(=O)NO)cc2C1 (centres unmarked) [Example 39, 7-(Butane-1-sulfonylamino)-5,6,7,8-tetrahydro-naphthalene-2-carboxylic acid hydroxyamid] | 0.08 | 0.03 | 0.04 | 0.91 µM | 4.2 µM |
